Measured values: patent US20110257161A1 (priority 2008, published 2011)
pIC50: −log10 of the molar value. Structures can show the parent of a compound that is named as a salt.

Biological target: α7-subtype of nicotinic receptors (Rattus norvegicus, UniProt Q05941)
Experiment: biochemical
Type: binding

Sequence of α7-subtype of nicotinic receptors (Q05941 23-502): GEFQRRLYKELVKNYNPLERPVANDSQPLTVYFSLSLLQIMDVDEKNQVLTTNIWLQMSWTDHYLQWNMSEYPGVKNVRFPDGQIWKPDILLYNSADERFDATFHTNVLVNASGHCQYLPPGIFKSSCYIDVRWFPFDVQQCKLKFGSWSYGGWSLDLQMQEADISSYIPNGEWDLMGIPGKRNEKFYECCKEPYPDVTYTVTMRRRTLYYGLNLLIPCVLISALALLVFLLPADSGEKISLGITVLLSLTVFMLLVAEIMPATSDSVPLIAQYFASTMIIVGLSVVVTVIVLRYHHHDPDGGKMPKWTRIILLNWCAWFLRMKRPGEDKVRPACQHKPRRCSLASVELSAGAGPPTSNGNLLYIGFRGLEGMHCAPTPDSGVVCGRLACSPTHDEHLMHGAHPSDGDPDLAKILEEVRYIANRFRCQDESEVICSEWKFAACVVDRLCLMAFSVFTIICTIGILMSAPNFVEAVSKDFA

Compound | pIC50
O=c1c2ccccc2nnn1-c1ccc(N2CCN3CCC2CC3)cc1 [Compound D1, 3-[4-(1,4-Diaza-bicyclo[3.2.2]non-4-yl)-phenyl]-3H-benzo[d][1,2,3]triazin-4-one fumaric acid salt] | 7.66
O=c1c2ccccc2ncn1-c1ccc(N2CCN3CCC2CC3)cc1 [Compound E1, 3-[4-(1,4-Diaza-bicyclo[3.2.2]non-4-yl)-phenyl]-3H-quinazolin-4-one fumaric acid salt] | 6.89
